From patent US20120171123A1, “USES AND COMPOSITIONS FOR TREATMENT OF RHEUMATOID ARTHRITIS” (priority 2006, published 2012)

Tests used:
[1] = system: patients with long-standing RA; assay: Study 4: DAS28, clinical remission and sustained remission; format: in vivo, human
Excerpt: DAS28 represents disease activity, taking into consideration the TJC 28, SJC 28, CRP, and patient general health (based on VAS of 100 mm) (see Prevoo et al. (1995) Arthritis Rheum 38:44-48 and Van Gestel et al. (1999) J Rheumatol 26:705-711, each of which is incorporated by reference herein). DAS28 scores greater than or equal to 5.1 represent severe activity disease activity, less than 5.1 to 3.2 indicate moderate disease activity, less than 3.2 to 2.6 indicate low disease activity, and scores below 2.6 represent remission. At the end of the fourth year, the median DAS28 score was 2.7 (low disease activity). […] The largest increase in percentage of patients in clinical remission was seen between months 0-6, where an increase in the percentage of patients in remission went from 0% at month 0 to about 27% at month 6.
The rates of sustained remission and time to remission were consistent across durations of the disease. Remission rates were defined as greater than or equal to 6 months by baseline disease duration. Rates of sustained remission and time to remission are described below in Table 16.
Remission rates were defined as greater than or equal to 6 months by baseline disease duration.
(§1) Efficacy outcomes were evaluated as observed data: DAS28; ACR 20/50/70; Tender Joint Count (TJC); Swollen Joint Count (SJC); and HAQ Disability Index. Baseline demographics and disease characteristics were similar in both Study 4 and Study 5 consistent with moderate to severe RA, as shown below in Table 64: […]

[2] = system: patients with moderate to severe rheumatoid arthritis; assay: Study C: DAS28; format: in vivo, human
Description: The Canadian Adalimumab Clinical Trial (Study C) was an open-label, multi-center, Phase IIIb study conducted in Canada. […] Efficacy and safety were assessed at baseline, 4, 8, and 12 weeks. Efficacy assessments included tender joint count (TJC 0-28), swollen joint count (SJC 0-28), Disease Activity Score 28 (DAS28), Health Assessment Questionnaire (HAQ), and EULAR response. This was a preliminary analysis of 236 patients. The sample size for each outcome variable is based on the data available at the time of the analysis. The data from this preliminary analysis were compared with the Week 12 data from Study A (N=2008).

[3] = system: patients with long-standing, moderate to severe RA; assay: Study 5 (open-label extension, adalimumab 40 mg eow + MTX, into 7th year): long-term efficacy (ACR, DAS28, TJC, SJC, HAQ) and withdrawals; format: in vivo, human; details: Year 7
Description: (§2) After these trials, patients were eligible to enroll in two separate OLE studies: Study 4 and Study 5. Patients were evaluated for efficacy and safety every 3 months.
as §1

[4] = system: patients with long-standing RA who had inadequate responses to MTX; assay: Study 1: serious adverse events
Description: Periodic ACR component evaluations were also performed throughout the study. Outcome measures included the following: Total Sharp Score (TSS), including joint erosions (JE) and joint space narrowing (JSN); ACR20, ACR50, and ACR70 response rates; and individual components of ACR responses criteria, including swollen joint count (SJC) and tender joint count (TJC). Efficacy and safety evaluations were conducted at regularly scheduled visits.

[5] = system: patients with RA who had failed prior treatment with infliximab; assay: Adalimumab after failed infliximab: ACR20/ACR50 and moderate EULAR response; format: in vivo, human; details: 16 wk
Excerpt: Patients eligible to participate in the study included those with long-standing, moderate to severe RA who had terminated infliximab therapy because of lack or loss of efficacy and/or intolerance/side effects. […] Follow-up visits for safety and efficacy monitoring were scheduled at 2, 8, and 16 weeks. […] Efficacy parameters included TJC28 and SJC28; DAS28; ACR20, ACR50 Response; Moderate EULAR response; and HAQ. Subgroup analysis by reason for discontinuation included: • in case of discontinuation due to lack or loss of efficacy, patients were counted in the corresponding group regardless of additional cause of intolerance. • The subgroup “Discontinuation due to intolerance” was exclusive.

[6] = system: patients with long-standing RA; assay: Study 4 (open-label extension, adalimumab 40 mg eow + MTX): ACR response and Major Clinical Response; format: in vivo, human
Description: The following study was performed to evaluate sustained remission in patients with RA treated with adalimumab and mtx. The study was an open-label extension study, where the last visit of the preceding study was used as the screening visit for Study 4. The study design for Study 4 is described in FIG. 12. The percentage of patients remaining on treatment over time from the first dose of adalimumab remained relatively constant. 846 patients enrolled over time.
ACR response rates and Major Clinical Response (MCR) remained constant through the fourth year of adalimumab treatment. Major Clinical Response (MCR) was defined as patients maintaining an ACR70 response for at least 6 continuous months over a 2-year period. […] At the end of the 4 year time period, 79% of patients had maintained an ACR20, 61% maintained an ACR50 response, and 38% maintained an ACR 70 response.
as §2, §1

[7] = blinded-controlled and OLE periods
[8] = all reasons for infliximab withdrawal (N=37)
[9] = loss of response to infliximab (N=19)
[10] = no response to infliximab (N=13)

Substance: adalimumab: human anti-TNF mAb (HUMIRA, Abbott Laboratories), described in U.S. Pat. No. 6,090,382 as D2E7
- DAS28, % change of mean clinical improvement from baseline ([1]; 6 months of exposure): 39%
- DAS28, % change of mean clinical improvement from baseline ([1]; 12 months): 44%
- DAS28, % change of mean clinical improvement from baseline ([1]; 24 months): 45%
- DAS28, % change of mean clinical improvement from baseline ([1]; 36 months): 47%
- DAS28, % change of mean clinical improvement from baseline ([1]; 48 months): 50%
- patients in clinical remission (DAS28<2.6) ([1]; 48 months): 49%
- patients achieving clinical remission (DAS28<2.6) ([1]; Year 5): Over 40%
- Months in remission (mean) ([1]; baseline DAS28 < 5.1): 27 months
- Months until remission (mean) ([1]; baseline DAS28 < 5.1): 8 months
- patients with sustained remission (≧6 months) ([1]; baseline DAS28 < 5.1): (n = 105, 50%*)
- Months in remission (mean) ([1]; baseline DAS28 ≧ 5.1): 23 months
- Months until remission (mean) ([1]; baseline DAS28 ≧ 5.1): 11 months
- patients with sustained remission (≧6 months) ([1]; baseline DAS28 ≧ 5.1): (n = 140, 22%**)
- % of visits with ACR70 during remission ([1]; disease duration >2 years): 64%
- % of visits with CRP <10 mg/L during remission ([1]; disease duration >2 years): 95%
- % of visits with SJC = 0 during remission ([1]; disease duration >2 years): 54%
- % of visits with TJC = 0 during remission ([1]; disease duration >2 years): 70%
- Months in remission (mean) ([1]; disease duration >2 years): 25 months
- Months until remission (mean) ([1]; disease duration >2 years): 10 months
- patients with sustained remission (≧6 months) ([1]; disease duration at entry >2 years): (n = 209, 29%*)
- patients with sustained remission (≧6 months) ([1]; disease duration at entry ≦2 years): (n = 36, 31%*)
- % of visits with ACR70 during remission ([1]; disease duration ≦2 years): 71%
- % of visits with CRP <10 mg/L during remission ([1]; disease duration ≦2 years): 94%
- % of visits with SJC = 0 during remission ([1]; disease duration ≦2 years): 64%
- % of visits with TJC = 0 during remission ([1]; disease duration ≦2 years): 77%
- Months in remission (mean) ([1]; disease duration ≦2 years): 25 months
- Months until remission (mean) ([1]; disease duration ≦2 years): 10 months
- median DAS28 score ([1]; end of fourth year): 2.7
- patients in clinical remission (DAS28<2.6) ([1]; month 6): about 27%
- DAS28 (mean), change from baseline ([2]; Study C, 12 weeks, preliminary analysis): −2.1 (116)
- mean decrease in DAS28 score ([2]; week 12): −2.1
- patients achieving DAS28<2.6 ([2]; week 12): 10%
- reduction in DAS28 score ([2]; week 12): 32%
- mean DAS28 ([2]; week 12 (baseline 6.5)): 4.4
- patients achieving clinical remission (DAS28<2.6) [3]: Over 40%
- Demyelinating disease [4, 7]: 0.2 events/100-PY
- Histoplamosis [4, 7]: 0.2 events/100-PY
- Tuberculosis [4, 7]: 0.2 events/100-PY
- Demyelinating disease ([4]; blinded-controlled period): 0.3 events/100-PY
- Histoplamosis ([4]; blinded-controlled period): 0.3 events/100-PY
- Tuberculosis ([4]; blinded-controlled period): 0.3 events/100-PY
- Lymphoma ([4]; in vivo): 0.3 events/100-PY
- Urinary tract infections ([4]; in vivo): 0.3 events/100-PY
- ACR20 [5, 8]: 49%
- ACR50 [5, 8]: 26%
- Moderate EULAR response [5, 8]: 65%
- ACR20 ([5]; infliximab intolerance (N=5)): 40%
- ACR50 ([5]; infliximab intolerance (N=5)): 20%
- Moderate EULAR response ([5]; infliximab intolerance (N=5)): 80%
- ACR20 [5, 9]: 61%
- ACR50 [5, 9]: 39%
- Moderate EULAR response [5, 9]: 74%
- ACR20 [5, 10]: 33%
- ACR50 [5, 10]: 8%
- Moderate EULAR response [5, 10]: 46%
- patients maintaining ACR20 ([6]; end of 4 years): 79%
- patients maintaining ACR50 ([6]; end of 4 years): 61%
- patients maintaining ACR70 ([6]; end of 4 years): 38%
- patients achieving Major Clinical Response (ACR70 ≧6 continuous months) ([6]; patients with at least 3 years of exposure): 31%
